Reference: US5397777A, “Meso poly(4-sulfonatophenyl) porphines as MRI image enhancing agents” (Health Research, Inc., priority 1993, dated 1995)
Where two headings read alike, the source gives them in different places.

Key:
[1] = mouse, in vivo; for Ratios of the concentration of porphyrins in liver to kidney / Ratios of the concentration of porphyrins in tumor to muscle: iv
Protocol: Measured concentrations are averages for two mice.
Biodistribution (liver, kidney, muscle and tumor) of the four manganese porphyrins was measured by absorption spectroscopy of ammonia/methanol mixtures and expressed as μg metalloporphyrin per gram of tissue (wet weight). Quantitation was based upon the extinction coefficient for each porphyrin as predetermined in the extraction solutions.
SMT-F (spontaneous mammary carcinoma) was maintained in the laboratory on a biweekly schedule in which 1 mm^3 pieces of tumor were implanted in the flank of DBA/2HaRos-d^+Ha mice. Porphyrins were delivered by intravenous injection in the tail vein.
The distribution of each porphyrin in kidney, liver, muscle and tumor was determined at 1 and 24 hours post injection.

[2] = test system: SMT-F (spontaneous mammary carcinoma); test: Relaxivity in excised tumor tissue at 10.7 MHz; format: in vivo, DBA/2HaRos-d^+Ha mice; details: 24 hours post injection; for Relaxivity of tumors excised from mice (relaxation rate of treated minus untreated tissue divided by porphyrin concentration in tumor tissue): 100 mg/kg, 10.7 MHz, 37° C.
Protocol: Relaxation and biodistribution measurements were carried out using procedures known to those skilled in the art, e.g., Fiel et. al., supra. Briefly, the longitudinal relaxation time (T1) for excised tissue was measured at 37° C., with a Praxis II™ relaxometer (Praxis Corporation, San Antonio, Tex.) operating at 10.7 MHz and employing a saturation recovery pulse sequence.
Relaxivity in tumor tissue was measured for each porphyrin on excised tissue at 10.7 MHz, 24 hours post injection of a 100 mg/kg dose (table 3).
*Expressed as the relaxation rate of tissue from treated animals (24 hrs)
minus the relaxation rate of tissue from untreated animal (control)
divided by the concentration of porphyrin in the tumor tissue.

[3] = test system: SMT-F (spontaneous mammary carcinoma); test: Magnetic resonance imaging of tumor bearing mouse, signal intensity; format: in vivo, DBA/2HaRos-d^+Ha mice; details: for tumor appearance in MR image / kidney signal in MR image / Normalized Signal Intensity, confidence interval / Normalized Signal Intensity, range / Normalized Signal Intensity, mean ± SD: 100 mg/kg; for kidney signal in MR image: region of the pelvis; for Normalized Signal Intensity, confidence interval: 99% (t test); for Normalized Signal Intensity, range: control 0.652-0.701; for Normalized Signal Intensity, mean ± SD: control 0.685 ± .015
Protocol: Control (upper left), 1 hour post injection (100 mg/kg) of Mn(III)TPPS3 (upper right), and 24 hours post injection (lower left). […] Image intensity working standards (top to bottom) 28 mM CuSO4 in 1N HCl, 5 mM GdDTPA in isotonic saline and baby oil.
Magnetic resonance images were made using a custom-built small animal (mouse) transmitter/receiving coil similar to the design of Henkelman et al., Small Animal Imaging With A Clinical Imager. Magn. Reson. Med. 4:61-66; 1987, and tuned to 15 MHz for use with a Diasonics™ 0.35 Tesla clinical scanner. Images were made using a TR of 500 msec. and a TE of 50 msec. with a slice thickness of 2.5 mm.
Images were analyzed using a Hewlett Packard Vectra™ ES/12 personal computer with high resolution VGA graphics after digitization via a Dage 70™ camera with Vidicon tube utilizing a Matrox™ MVP AT image capture/display board. Signal intensity measurements were made from selected areas of interest (AOI) using Image-Pro II™ software (Media Cybernetics, Silver Spring, MD). Any suitable similar apparatus and software can of course be used. Generally an entire section (image slice) of tumor was circumscribed using a free-form area of interest option. The area of interest was then represented by a histogram relating pixel frequency to gray level. Each gray level (0-255) was multiplied by its associated frequency. The resulting products were summed and divided by the area of interest in units of centimeter squared. The procedure was repeated three times to determine a mean value for the tumor at each time period. The same procedure was carried out for the midrange working standard (5 mM Gd DTPA).
The visual differences (intensity) noted between control and treated (FIG. 2) were quantitated using mean intensity values normalized to corresponding working standards. The results (table 4) indicate that differences between control and enhanced and between one and 24 hrs are significant. Signal intensity measured at 24 hrs is 21% higher than control and 7% higher than the value determined at 1 hr. Note that this analysis ignores the fact that the increase in intensity at 24 hrs is actually concentrated into a relatively small area of the tumor by averaging over the entire section.

L1210 cells = test system: L1210 cells; parameters: unit not given beside the values; details: mouse, 48 h
[4] = Hydrophobicity of the porphyrins; format: physicochemical; details: rank within the series of four

Compound	Ratios of the concentration of porphyrins in liver to kidney ([1]; 60 min)	Ratios of the concentration of porphyrins in tumor to muscle ([1]; 60 min)	Ratios of the concentration of porphyrins in liver to kidney ([1]; 1440 min)	tumor uptake, tumor/muscle ratio and relaxivity in tumor tissue, overall ranking [2]	Ratios of the concentration of porphyrins in tumor to muscle ([1]; 1440 min)	Relaxivity of tumors excised from mice (relaxation rate of treated minus untreated tissue divided by porphyrin concentration in tumor tissue) [2]	further results
O=S(=O)([O-])c1ccc(-c2c3nc(c(-c4ccc(S(=O)(=O)[O-])cc4)c4ccc([nH]4)c(-c4ccc(S(=O)(=O)[O-])cc4)c4nc(c(-c5ccccc5)c5ccc2[nH]5)C=C4)C=C3)cc1.[Mn+3] [MnTPPS3, manganese III meso-[tri(4-sulfonatophenyl)phenyl]porphine]	0.7	3.2	1.8	superior to all others in regard to tumor uptake, tumor/muscle ratio and relaxivity in tumor tissue			concentration in kidney [1]: high concentration found in the kidney at 1 hour; kidney clearance [1]: cleared rapidly and concentrated in the urine; tumor appearance in MR image ([3]; 1 hour post injection): the tumor appears somewhat brighter than the control, although it remains homogeneous; kidney signal in MR image ([3]; 1 hour post injection): high intensity signal in the region of the pelvis; kidney signal in MR image ([3]; 1 hour post injection, listed as Mn(III)TPPS3, 100 mg/kg): concentration of porphyrin in kidneys at 1 hour; Normalized Signal Intensity, confidence interval ([3]; 1 hr post injection, tumor): 0.769-0.784; Normalized Signal Intensity, range ([3]; 1 hr post injection, tumor): 0.766-0.780; Normalized Signal Intensity, mean ± SD ([3]; 1 hr post injection, tumor): 0.774 ± .006; tumor appearance in MR image ([3]; 24 hours post injection): the tumor appears very heterogeneous; tumor appearance in MR image ([3]; 24 hours post injection, listed as Mn(III)TPPS3, 100 mg/kg): heterogeneous signal enhancement in tumor at 24 hours; Normalized Signal Intensity, confidence interval ([3]; 24 hrs post injection, tumor): 0.815-0.841; Normalized Signal Intensity, range ([3]; 24 hrs post injection, tumor): 0.820-0.836; Normalized Signal Intensity, mean ± SD ([3]; 24 hrs post injection, tumor): 0.828 ± .007; Signal intensity increase over the value at 1 hr ([3]; 24 hrs vs 1 hr, tumor): 7%; Signal intensity increase over control ([3]; 24 hrs vs control, tumor): 21%; LD50 for L1210 cells in culture at day 2 (L1210 cells): 1010
manganese III meso-[cis-di(4-sulfonatophenyl)diphenyl]porphine [MnTPPS2(cis)]	6.4	2.8	5.5	superior to MnTPPS4	9.7		Relaxivity of tumors excised from mice (relaxation rate of treated minus untreated tissue divided by porphyrin concentration in tumor tissue) ([2]; measurement from one mouse): 0.361
O=S(=O)([O-])c1ccc(-c2c3nc(c(-c4ccc(S(=O)(=O)[O-])cc4)c4ccc([n-]4)c(-c4ccc(S(=O)(=O)[O-])cc4)c4ccc([n-]4)c(-c4ccc(S(=O)(=O)[O-])cc4)c4nc2C=C4)C=C3)cc1.[Mn+3] [MnTPPS4, manganese III meso-tetra(4-sulfonatophenyl)porphine, reference compound]	0.3		0.3			0.207 ± .004	hydrophobicity [4]: the least hydrophobic porphyrin
manganese III meso-[trans-di(4-sulfonato-phenyl)diphenyl]porphine [MnTPPS2(trans)]	4.4	2.3	3.8	superior to MnTPPS4	11.6	0.296 ± .045	
